ChEMBL document CHEMBL5247681, “Covalent S-Adenosylhomocysteine-Based DNA Methyltransferase 2 Inhibitors with a New Type of Aryl Warhead” (ACS Med Chem Lett, 2023)

Tests used:
Type in all cases: physicochemical
[1] = Stability of compound in TRIS buffer at pH 8 assessed as compound conversion in presence of DTT measured after 90 mins by LC-MS analysis; conditions: TRIS buffer with DTT, read-out: Drug metabolism
[2] = Stability of compound in TRIS buffer at pH 8 assessed as compound conversion in presence of DTT measured for 2 to 90 mins by LC-MS analysis; conditions: time 2-90 min
[3] = Stability of compound in TRIS buffer at pH 8 assessed as compound conversion in presence of DTT measured after 15 mins by LC-MS analysis; conditions: TRIS buffer with DTT, read-out: Drug metabolism

SMILES	degraded at 1.5 h [1] [%]	Stability [2]	degraded at 0.25 h [3] [%]
Nc1ncnc2c1ncn2[C@@H]1O[C@H](CN(CC[C@H](N)C(=O)O)S(=O)(=O)c2ccc(Br)c([N+](=O)[O-])c2)[C@@H](O)[C@H]1O	100	Unstable	60
Nc1ncnc2c1ncn2[C@@H]1O[C@H](CN(CC[C@H](N)C(=O)O)S(=O)(=O)c2ccc(F)c([N+](=O)[O-])c2)[C@@H](O)[C@H]1O		Unstable	
Nc1ncnc2c1ncn2[C@@H]1O[C@H](CN(CC[C@H](N)C(=O)O)S(=O)(=O)c2ccc(Cl)c([N+](=O)[O-])c2)[C@@H](O)[C@H]1O	100	Unstable	60
